Results from patent US20190169221A1, “SUBSTITUTED NUCLEOSIDES, NUCLEOTIDES AND ANALOGS THEREOF” (Janssen BioPharma, Inc., priority 2016, published 2019).

Tests used:
CVB3 = assay: Enterovirus assay, CVB3 (HeLa-OHIO cells); type: cell-based, Coxsackie virus 3B; conditions: Enterovirus B, 37° C.
Protocol: (§1) HeLa OHIO cells were purchased from Sigma Aldrich (St Louis, Mo.) and cultured in MEM with Glutamax (Gibco cat. #41090) supplemented with 10% FBS (Mediatech cat. #35-011-CV) and 1% penicillin/streptomycin (Mediatech cat. #30-002-CI), at 37° C. with 5% CO2. RD cells were purchased from ATCC (Manassas, Va.) and cultured in DMEM, supplemented with 10% FBS (Mediatech cat. #35-011-CV) and 1% penicillin/streptomycin (Mediatech cat. #30-002-CI), at 37° C. with 5% CO2. For […]68 and CVB3, HeLa-OHIO cells were plated at a density of 1.5×10^5 cells per mL (1.5×10^4 cells per well) in assay media (MEM without phenol red or L-glutamine (Gibco cat. #51200) supplemented with 1% FBS, 1% penicillin/streptomycin (Mediatech cat. #30-002-CI) and 1% Glutamax (Gibco cat. #35050)) in clear-bottom 96 well plates. For EV71, RD cells were plated at a density of 5×10^4 cells per mL (5000 cells per well) in assay media (DMEM supplemented with 2% FBS and 1% penicillin/streptomycin). After 24 h, media was removed and replaced with serially diluted compounds in assay media. […] After 2-6 days, cell viability was measured using CellTiter Glo Luminescent Cell Viability Assay (Promega cat. #G7572). […] Plates were incubated at R.T. for 5 mins, then luminescence was measured using a Perkin Elmer multilabel counter Victor3V. EC50 values were determined using XLFit.

Human rhinovirus 16 = assay: Enterovirus assay, HRV 16 (HeLa-OHIO cells); type: cell-based; conditions: Rhinovirus A
Protocol: as §1

Human rhinovirus 1B = assay: Picornavirus / enterovirus assay, HRV 1B (HeLa-OHIO cells); type: cell-based; conditions: Rhinovirus A; HeLa-OHIO cells, 33° C.; read-out: HRV 1B EC50
Zika virus = assay: Zika viral assay (cytopathic effect, Huh-7.5 cells); type: cell-based; conditions: Huh7.5, read-out: Zika EC50
Protocol: (§2) The Dengue virus type 2 strain New Guinea C (NG-C) and the Dengue virus type 4 strain H241 were purchased from ATCC (Manassas, Va.; item numbers VR-1584 and VR-1490, respectively). The Zika virus strain MR766 was purchased from ATCC (item #VR-1838) and the Zika virus strain IbH 30656 was purchased from BEI Resources (Manassas, Va.; item number NR-500066). 24 h prior to dosing, Huh-7.5 cells were plated in 96 well plates at a density of 1.5×10^5/mL in DMEM medium supplemented with 10% fetal bovine serum, 1% HEPES buffer, 1% Penicillin/Streptomycin and 1% non-essential amino acids (all Mediatech, Manassas, Va.). At the day of infection, serially diluted compounds were added to cells and incubated for 24 h. After the end of the 24 h pre-incubation period, cells were infected with either Dengue virus type 2 NG-C, Dengue virus type 4 H241, Zika virus strain MR766 or Zika virus strain IbH 30656. The virus inoculum was selected to cause 80-90% cytopathic effect in four (Zika) to five (Dengue) days. Infected cells were incubated for four to five days at 37° C., 5% CO2. To develop the assay, 100 μL media was replaced with 100 μl CellTiter-Glo® reagent (Promega, Madison, Wis.) and incubated for 10 mins at R.T. Luminescence was measured on a Victor ×3 multi-label plate reader. Potential compound cytotoxicity was determined using uninfected parallel cultures.

EV71 = assay: Enterovirus assay, EV71 (RD cells); type: cell-based; conditions: Enterovirus A, 37° C.
Protocol: HeLa OHIO cells were purchased from Sigma Aldrich (St Louis, Mo.) and cultured in MEM with Glutamax (Gibco cat. #41090) supplemented with 10% FBS (Mediatech cat. #35-011-CV) and 1% penicillin/streptomycin (Mediatech cat. #30-002-CI), at 37° C. with 5% CO2. RD cells were purchased from ATCC (Manassas, Va.) and cultured in DMEM, supplemented with 10% FBS (Mediatech cat. #35-011-CV) and 1% penicillin/streptomycin (Mediatech cat. #30-002-CI), at 37° C. with 5% CO2. For […]68 and CVB3, HeLa-OHIO cells were plated at a density of 1.5×10^5 cells per mL (1.5×10^4 cells per well) in assay media (MEM without phenol red or L-glutamine (Gibco cat. #51200) supplemented with 1% FBS, 1% penicillin/streptomycin (Mediatech cat. #30-002-CI) and 1% Glutamax (Gibco cat. #35050)) in clear-bottom 96 well plates. For EV71, RD cells were plated at a density of 5×10^4 cells per mL (5000 cells per well) in assay media (DMEM supplemented with 2% FBS and 1% penicillin/streptomycin). After 24 h, media was removed and replaced with serially diluted compounds in assay media. For EC50 measurements, cells were infected in 100 μL assay media with a virus inoculum sufficient to obtain to cause 80-90% cytopathic effect. After 2-6 days, cell viability was measured using CellTiter Glo Luminescent Cell Viability Assay (Promega cat. #G7572). Cells infected with EV-71, EV-68 and CVB3 were cultured at 37° C., while cells infected with hV1b, hV-16, hV-75 were cultured at 33° C. 100 μL media was removed from each well and 100 μL CellTiter Glo reagent was added. Plates were incubated at R.T. for 5 mins, then luminescence was measured using a Perkin Elmer multilabel counter Victor3V. EC50 values were determined using XLFit.

[1] = tested on: Dengue virus type 2 strain New Guinea C (NG-C); assay: Dengue viral assay (cytopathic effect, Huh-7.5 cells); type: cell-based; conditions: Huh7.5, Dengue virus type 2 (NG-C strain), read-out: Dengue NGC EC50
Protocol: as §2

[2] = tested on: Huh-7 cells containing the self-replicating, subgenomic HCV replicon; assay: HCV replicon assay; type: cell-based; conditions: Hepatitis C virus; Huh-7 replicon cells, 72 h, luciferase
Human rhinovirus 75 = assay: Enterovirus assay, HRV 75 (HeLa-OHIO cells); type: cell-based; conditions: Rhinovirus A
Protocol: as §1

Human rhinovirus 14 = assay: Enterovirus assay, HRV 14 (HeLa-OHIO cells); type: cell-based; conditions: Rhinovirus B
NS5B-BK (Delta-21) = NS5B-BK (Delta-21) (Hepatitis C virus genotype 1b, UniProt P26663); assay: biochemical; set-up: species or system HCV
[3] = molecular target: human rhinovirus 16 polymerase (HRV16pol) (Human rhinovirus 16, UniProt Q82122); assay: Picornavirus polymerase inhibition assay; type: biochemical; conditions: triphosphates, read-out: Viral Polymerase Inhibition IC50 Picornavirus
Protocol: The enzyme activity of human rhinovirus 16 polymerase (HRV16pol) was measured as an incorporation of tritiated NMP into acid-insoluble RNA products. hV16pol assay reactions contained […] recombinant enzyme, 50 nM heteropolymeric RNA, about 0.5 μCi tritiated NTP, 0.1 mM of competing cold NTP, 40 mM Tris-HCl (pH 7.0), […] dithiothreitol and 0.5 mM MgCl2. Standard reactions were incubated for 2.5 h at 30° C., in the presence of increasing concentration of inhibitor. At the end of the reaction, RNA was precipitated with 10% TCA and acid-insoluble RNA products were filtered on a size exclusion 96-well plate. After washing of the plate, scintillation liquid was added and radiolabeled RNA products were detected using standard procedures with a Trilux Microbeta scintillation counter. The compound concentration at which the enzyme-catalyzed rate was reduced by 50% (IC50) was calculated by fitting the data to a non-linear regression (sigmoidal).

Dengue viral polymerase = Dengue viral polymerase (Dengue virus type 2, UniProt P14340); assay: biochemical; conditions: triphosphates; read-out: Viral Polymerase Inhibition IC50 Dengue

Chain of human rhinovirus 16 polymerase (HRV16pol) (Q82122 1694-2153 limits assumed): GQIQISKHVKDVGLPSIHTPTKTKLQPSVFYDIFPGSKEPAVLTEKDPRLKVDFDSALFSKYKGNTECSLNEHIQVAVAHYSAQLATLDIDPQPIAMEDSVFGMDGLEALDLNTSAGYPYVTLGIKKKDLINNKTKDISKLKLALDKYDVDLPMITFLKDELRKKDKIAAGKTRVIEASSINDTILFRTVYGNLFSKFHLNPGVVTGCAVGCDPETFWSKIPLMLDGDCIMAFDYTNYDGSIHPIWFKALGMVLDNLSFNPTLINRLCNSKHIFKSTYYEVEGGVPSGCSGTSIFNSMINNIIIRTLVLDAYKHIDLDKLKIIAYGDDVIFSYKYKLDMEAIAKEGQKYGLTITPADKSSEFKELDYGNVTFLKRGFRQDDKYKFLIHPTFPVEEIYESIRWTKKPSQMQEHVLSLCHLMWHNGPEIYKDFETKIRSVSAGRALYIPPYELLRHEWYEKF
Chain of NS5B-BK (Delta-21) (P26663 2420-2989 limits assumed): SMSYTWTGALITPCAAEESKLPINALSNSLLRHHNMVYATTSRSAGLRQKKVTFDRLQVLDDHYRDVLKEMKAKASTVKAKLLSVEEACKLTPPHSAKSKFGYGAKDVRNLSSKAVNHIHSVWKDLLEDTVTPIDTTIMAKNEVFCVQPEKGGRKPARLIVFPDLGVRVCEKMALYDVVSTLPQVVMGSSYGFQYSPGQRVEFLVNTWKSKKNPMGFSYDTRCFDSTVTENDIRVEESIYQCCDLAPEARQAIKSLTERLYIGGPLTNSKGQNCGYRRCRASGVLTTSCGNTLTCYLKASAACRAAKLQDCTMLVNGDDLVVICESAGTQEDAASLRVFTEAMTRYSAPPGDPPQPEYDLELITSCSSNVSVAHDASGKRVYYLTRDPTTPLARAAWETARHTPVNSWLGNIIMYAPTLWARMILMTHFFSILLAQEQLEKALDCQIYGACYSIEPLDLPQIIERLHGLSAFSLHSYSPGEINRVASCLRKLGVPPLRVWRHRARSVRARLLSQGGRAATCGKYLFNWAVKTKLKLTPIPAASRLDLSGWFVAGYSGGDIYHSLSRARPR

| SMILES | EC50 (Human rhinovirus 1B) [µM] | EC50 [1] [µM] | IC50 (NS5B-BK (Delta-21)) [µM] | IC50 [3] [µM] | IC50 (Dengue viral polymerase) [µM] | other results |
| --- | --- | --- | --- | --- | --- | --- |
| C#C[C@]1(O)[C@H](n2cnc3c(N)ncnc32)O[C@](F)(CO)[C@H]1O [Compound 1, (2S,3S,4R,5R)-5-(6-amino-9H-purin-9-yl)-4-ethynyl-2-fluoro-2-(hydroxymethyl)tetrahydrofuran-3,4-diol] | < 3 | < 3 | – | – | – | EC50 (CVB3): < 3 µM; EC50 (Human rhinovirus 16): < 3 µM; EC50 (Zika virus): < 3 µM; EC50 (EV71): < 3 µM; EC50 [2]: < 3 µM; EC50 (Human rhinovirus 75): < 3 µM; EC50 (Human rhinovirus 14): < 3 µM |
| C#C[C@]1(O)[C@H](n2cc(F)c3c(N)ncnc32)O[C@](F)(CO)[C@H]1O [Compound 7, (2S,3S,4R,5R)-5-(4-amino-5-fluoro-7H-pyrrolo[2,3-d]pyrimidin-7-yl)-4-ethynyl-2-fluoro-2-(hydroxymethyl)tetrahydrofuran-3,4-diol] | < 3 | < 3 | – | – | – | EC50 (EV71): < 3 µM |
| C[C@]1(O)[C@H](n2cnc3c(N)ncnc32)O[C@](F)(CO)[C@H]1O [Compound 13, (2S,3S,4R,5R)-5-(6-amino-9H-purin-9-yl)-2-fluoro-2-(hydroxymethyl)-4-methyltetrahydrofuran-3,4-diol] | 3 to 30 | > 100 | – | – | – | EC50 [2]: 3 to 30 µM |
| C[C@]1(F)[C@H](n2cnc3c(N)nc(N)nc32)O[C@](F)(CO)[C@H]1O [Compound 15, (2S,3S,4R,5R)-5-(2,6-diamino-9H-purin-9-yl)-2,4-difluoro-2-(hydroxymethyl)-4-methyltetrahydrofuran-3-ol] | 30 to 100 | > 100 | – | – | – | EC50 [2]: > 100 µM |
| C#C[C@]1(O)[C@H](n2cnc3c(N)ncnc32)O[C@](F)(COP(=O)(O)OP(=O)(O)OP(=O)(O)O)[C@H]1O [Compound 23] | – | – | < 3 | < 3 | < 3 | – |
| C=C=C[C@@]1(O)[C@H](O)[C@@H](COP(=O)(O)OP(=O)(O)OP(=O)(O)O)O[C@H]1n1cnc2c(N)ncnc21 [Compound 25] | – | – | < 3 | 3 to 30 | 3 to 30 | – |
| C#C[C@@]1(O)[C@H](O)[C@@H](CO)O[C@H]1c1ccc2c(N)ncnn12 [Compound 26, (2S,3R,4R,5R)-2-(4-aminopyrrolo[2,1-f][1,2,4]triazin-7-yl)-3-ethynyl-5-(hydroxymethyl)tetrahydrofuran-3,4-diol] | < 3 | < 3 | – | – | – | EC50 (EV71): < 3 µM |
| C#C[C@@]1(O)[C@H](O)[C@@H](COP(=O)(O)OP(=O)(O)OP(=O)(O)O)O[C@H]1n1cnc2c(=O)[nH]cnc21 [Compound 35] | – | – | < 3 | > 100 | < 3 | – |
| C#C[C@]1(OC(=O)C(C)C)[C@H](n2cnc3c(N)ncnc32)O[C@](F)(COC(=O)C(C)C)[C@H]1OC(=O)C(C)C [Compound 43, (2S,3S,4R,5R)-5-(6-amino-9H-purin-9-yl)-4-ethynyl-2-fluoro-2-((isobutyryloxy)methyl)tetrahydrofuran-3,4-diylbis(2-methylpropanoate)] | < 3 | < 3 | – | – | – | EC50 (EV71): < 3 µM |
| C#C[C@]1(O)[C@H](n2cc(C#N)c3c(N)ncnc32)O[C@](F)(COP(=O)(O)OP(=O)(O)OP(=O)(O)O)[C@H]1O [Compound 45] | – | – | < 3 | < 3 | < 3 | – |
| C#C[C@]1(O)[C@H](n2cc(C(N)=O)c3c(N)ncnc32)O[C@](F)(COP(=O)(O)OP(=O)(O)OP(=O)(O)O)[C@H]1O [Compound 50] | – | – | 3 to 30 | < 3 | < 3 | – |
| C#C[C@]1(O)[C@H](n2cc(F)c3c(N)ncnc32)O[C@](F)(COP(=O)(O)OP(=O)(O)OP(=O)(O)O)[C@H]1O [Compound 51] | – | – | < 3 | < 3 | < 3 | – |
| C#C[C@@]1(O)[C@H](O)[C@@H](COP(=O)(O)OP(=O)(O)OP(=O)(O)O)O[C@H]1c1ccc2c(N)ncnn12 [Compound 52] | – | – | < 3 | < 3 | < 3 | – |
| C#C[C@@]1(O)[C@H](O)[C@@H](COP(=O)(O)OP(=O)(O)OP(=O)(O)O)O[C@H]1c1cnc2c(N)ncnn12 [Compound 53] | – | – | < 3 | < 3 | 3 to 30 | – |
| C#C[C@@]1(F)[C@H](O)[C@@H](COP(=O)(O)OP(=O)(O)OP(=O)(O)O)O[C@H]1c1cnc2c(N)ncnn12 [Compound 54] | – | – | < 3 | 30 to 100 | 30 to 100 | – |
| C#C[C@]1(O)[C@H](n2cnc3c(=O)[nH]cnc32)O[C@](F)(COP(=O)(O)OP(=O)(O)OP(=O)(O)O)[C@H]1O [Compound 56] | – | – | < 3 | < 3 | 3 to 30 | – |
| C#C[C@]1(O)[C@H](n2cnc3c(N)nc(F)nc32)O[C@](F)(COP(=O)(O)OP(=O)(O)OP(=O)(O)O)[C@H]1O [Compound 57] | – | – | < 3 | < 3 | < 3 | – |
| C#C[C@@]1(O)[C@H](O)[C@@H](COP(=O)(O)OP(=O)(O)OP(=O)(O)O)O[C@H]1n1cc(F)c2c(N)ncnc21 [Compound 58] | – | – | < 3 | < 3 | < 3 | – |
